The results in this text go back to PubChem BioAssay (NCI).

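1) Cells in 96-well plates. 2) Compound, 48 h, 5 concentrations. 3) Linear interpolation between surrounding doses. 4) Unreached endpoint = highest concentration. GI50 is the concentration that inhibits growth by half. TGI: total growth inhibition.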 A value given as a limit tells only on which side of the number the result lay.

Among the test systems are M14 melanoma; OVCAR-5 ovarian; UACC-62 melanoma; SK-OV-3 ovarian; PC-3 prostate; SK-MEL-2 melanoma; NCI-H23 lung; SK-MEL-5 melanoma; SNB-19 CNS; U251 CNS.
Common to all, as to test: NCI tumour cell line growth inhibition, 48 h

For the compound `COc1ccc(C2C(C#N)=C(N)OC3=C2COc2ccc(F)cc23)cc1OC` (stereo not drawn), the GI50 in the assay with M14 melanoma was 40.1 µM; in the assay with OVCAR-5 ovarian, 23.7 µM; with UACC-62 melanoma, 15.1 µM; in the assay with SK-OV-3 ovarian, 37.3 µM; in the assay on PC-3 prostate, 23.2 µM; in the assay on SK-MEL-2 melanoma, 68.7 µM. Moreover, the GI50 is 13.1 µM in the assay on NCI-H23 lung, 12.9 µM with SK-MEL-5 melanoma, 73.8 µM in the assay on SNB-19 CNS and 17 µM with U251 CNS. Further, the TGI is greater than 100 µM in the assay on M14 melanoma; 80.9 µM in the assay with OVCAR-5 ovarian; 44.3 µM in the assay on UACC-62 melanoma; greater than 100 µM in the assay on SK-OV-3 ovarian; 93.6 µM with PC-3 prostate; greater than 100 µM in the assay with SK-MEL-2 melanoma. Besides, the TGI is 36.7 µM in the assay with NCI-H23 lung, 44.9 µM with SK-MEL-5 melanoma, greater than 100 µM with SNB-19 CNS and 59.2 µM in the assay on U251 CNS.
Consider `O=C(Nc1ccc(Cl)cc1F)c1cc(Br)ccc1O`, for which the GI50 in the assay on M14 melanoma was 0.751 µM; in the assay with OVCAR-5 ovarian it was 3.71 µM; in the assay on UACC-62 melanoma, 0.305 µM; in the assay with SK-OV-3 ovarian, 0.763 µM; in the assay on PC-3 prostate, 1.83 µM; in the assay with SK-MEL-2 melanoma, 0.467 µM. Also, the GI50 in the assay on NCI-H23 lung is 0.659 µM; in the assay on SK-MEL-5 melanoma it was 0.3 µM; in the assay on SNB-19 CNS, 0.508 µM; in the assay on U251 CNS, 0.913 µM. Also, the TGI in the assay on M14 melanoma was 3.75 µM; in the assay on OVCAR-5 ovarian, greater than 100 µM; with UACC-62 melanoma, 1.26 µM; in the assay with PC-3 prostate, 8.53 µM; in the assay with SK-MEL-2 melanoma, 3.18 µM; in the assay with NCI-H23 lung, 4.69 µM. Further, the TGI is 1.07 µM in the assay on SK-MEL-5 melanoma, greater than 100 µM with SNB-19 CNS and greater than 52.4 µM in the assay with U251 CNS.
Take `Cc1c[n+](Cc2ccc3ccccc3c2)cn1Cc1ccc2ccccc2c1`: the GI50 in the assay on M14 melanoma was 1.58 µM; in the assay on OVCAR-5 ovarian, 1.81 µM; in the assay on UACC-62 melanoma it was 1.41 µM; in the assay with SK-OV-3 ovarian it was 2.16 µM; in the assay on PC-3 prostate, 1.27 µM; with SK-MEL-2 melanoma it was 1.85 µM. Besides, the GI50 with NCI-H23 lung was 1.49 µM; in the assay on SK-MEL-5 melanoma, 0.688 µM; with SNB-19 CNS, 1.54 µM; with U251 CNS, 1.61 µM. Moreover, the TGI is 3.66 µM in the assay on M14 melanoma; 3.95 µM in the assay with OVCAR-5 ovarian; 3.12 µM in the assay with UACC-62 melanoma; 6.12 µM with SK-OV-3 ovarian; 2.84 µM in the assay on PC-3 prostate; 3.68 µM with SK-MEL-2 melanoma. The TGI amounted to 3.97 µM in the assay on NCI-H23 lung, 1.94 µM in the assay with SK-MEL-5 melanoma, 3.14 µM in the assay on SNB-19 CNS and 3.07 µM in the assay on U251 CNS.
Consider `CCOC(=O)N1CCN(C(=O)c2ccc(C(F)(F)F)nc2Nc2cc(Cl)ccc2C)CC1`, for which the GI50 was 23.7 µM with M14 melanoma; 39.4 µM in the assay on OVCAR-5 ovarian; 10 µM in the assay on UACC-62 melanoma; greater than 100 µM in the assay on SK-OV-3 ovarian; 7.71 µM in the assay with PC-3 prostate; 22.3 µM in the assay with SK-MEL-2 melanoma. In addition, the GI50 was 14.1 µM in the assay on NCI-H23 lung, 10.1 µM in the assay with SK-MEL-5 melanoma, greater than 100 µM with SNB-19 CNS and 27.1 µM in the assay with U251 CNS. Besides, the TGI with M14 melanoma is greater than 100 µM; in the assay with OVCAR-5 ovarian, greater than 100 µM; in the assay with UACC-62 melanoma, 25.6 µM; in the assay on SK-OV-3 ovarian it was greater than 100 µM; in the assay with PC-3 prostate it was greater than 100 µM; in the assay on SK-MEL-2 melanoma, 72.9 µM. For the same compound, the TGI is 74.5 µM in the assay with NCI-H23 lung, 23.2 µM in the assay with SK-MEL-5 melanoma, greater than 100 µM in the assay with SNB-19 CNS and greater than 100 µM with U251 CNS.
With `O=C(O)Cc1c(O)ccc2ccccc12`, the TGI in the assay with M14 melanoma, in the assay on OVCAR-5 ovarian, in the assay on UACC-62 melanoma, with SK-OV-3 ovarian, in the assay with PC-3 prostate and with SK-MEL-2 melanoma was greater than 100 µM throughout. Also, the TGI in the assay on NCI-H23 lung, with SK-MEL-5 melanoma, in the assay with SNB-19 CNS and in the assay on U251 CNS was greater than 100 µM in each case.
As to `Fc1ccc(Nc2cc(-n3nnc4ccccc43)nc3ccccc23)cc1`, the GI50 with M14 melanoma was greater than 81.7 µM; with OVCAR-5 ovarian it was greater than 100 µM; in the assay with UACC-62 melanoma it was 36.4 µM; with SK-OV-3 ovarian it was 8.41 µM; in the assay with PC-3 prostate, 20.3 µM; in the assay on SK-MEL-2 melanoma, 98.8 µM. The results for the GI50 in the assay on NCI-H23 lung, in the assay on SK-MEL-5 melanoma and in the assay with U251 CNS were 49.2 µM, 32.2 µM and 27.6 µM, respectively. Further, the TGI in the assay on M14 melanoma was greater than 100 µM; in the assay on OVCAR-5 ovarian it was greater than 100 µM; in the assay on UACC-62 melanoma it was greater than 69.2 µM; in the assay with SK-OV-3 ovarian it was greater than 100 µM; in the assay with PC-3 prostate, greater than 100 µM; with SK-MEL-2 melanoma it was greater than 100 µM. The TGI with NCI-H23 lung is greater than 100 µM; in the assay on SK-MEL-5 melanoma, greater than 100 µM; in the assay with SNB-19 CNS, greater than 100 µM; with U251 CNS it was greater than 76.1 µM.
Take `COC(=O)[C@@H](NC(=O)[C@@H](OC)[C@@H]1Cc2cc3cc(OC4CC(OC5CC(O)C(O)C(C)O5)C(O)C(C)O4)c(C)c(O)c3c(O)c2C(=O)[C@H]1OC1CC(OC2CC(OC3CC(C)(O)C(O)C(C)O3)C(O)C(C)O2)C(O)C(C)O1)C(C)C` (stereo partly drawn): the GI50 in the assay with M14 melanoma is 0.147 µM; in the assay on OVCAR-5 ovarian it was 0.265 µM; in the assay with UACC-62 melanoma, 0.0731 µM; in the assay on SK-OV-3 ovarian, 0.271 µM; in the assay on PC-3 prostate it was 0.149 µM; in the assay on SK-MEL-2 melanoma, 0.194 µM. Moreover, the GI50 with NCI-H23 lung was 0.144 µM; with SK-MEL-5 melanoma, 0.0727 µM; in the assay on SNB-19 CNS, 0.157 µM; with U251 CNS, 0.106 µM. In addition, the TGI with M14 melanoma is greater than 32.5 µM; in the assay on OVCAR-5 ovarian it was 10.8 µM; in the assay on UACC-62 melanoma, 0.409 µM; with SK-OV-3 ovarian, greater than 32.5 µM; with PC-3 prostate, greater than 32.5 µM; in the assay on SK-MEL-2 melanoma it was 7.94 µM. The TGI with NCI-H23 lung is 13.5 µM; in the assay with SK-MEL-5 melanoma, 0.408 µM; in the assay on SNB-19 CNS, greater than 32.5 µM; in the assay with U251 CNS, 1.6 µM.
For the compound `O=C(O)c1cccc(OCCO)c1`, the TGI with M14 melanoma, in the assay with OVCAR-5 ovarian, with UACC-62 melanoma, with SK-OV-3 ovarian, with PC-3 prostate and in the assay with SK-MEL-2 melanoma was greater than 100 µM each time. Moreover, the TGI with NCI-H23 lung, in the assay on SK-MEL-5 melanoma, in the assay on SNB-19 CNS and with U251 CNS was greater than 100 µM each time.
